{"source": "paper PMC12522106", "about": "(Cancer Research Communications, 2025)", "key": {"[1]": {"test_system": "subcutaneous xenograft models of osteosarcoma cell lines", "conditions": "cited from earlier work"}, "[2]": {"test_system": "sarcospheres from human patients with osteosarcoma", "assay": "Resazurin metabolic activity of human patient-derived sarcospheres", "assay_type": "cell-based", "conditions": "for ED50: 48 hours, metabolic activity", "excerpt": "Osteosarcoma tissue was obtained during standard-of-care procedures (biopsies or resections) in human patients treated at Indiana University Health and Riley Children’s Hospital with Institutional Review Board approval (#1501467439). Tissue from canine patients with osteosarcoma was obtained from standard-of-care amputations at the Purdue University College of Veterinary Medicine and the Metropolitan Veterinary Hospital. Osteosarcoma diagnosis was confirmed by review of pathology reports. Demographic and clinical information for human and canine patients is in Table 1. Primary osteosarcoma cells were isolated by collagenase/mechanical dispersion using a modification of a previously described protocol ([35]). […] The tissue was rinsed with cold PBS (Cytiva, cat. #SH30028.02) and minced prior to incubation in 10 mL of culture media containing collagenase type II (750 units/mL with 13–18 units of clostripain/mL, Worthington, cat. #LS004176) for 3 hours at 37°C and 5% CO2. The media and tissue fragments were centrifuged at 200 g for 5 minutes. Pellets with a visible layer of red blood cells were then treated with 5 mL of ACK Lysing Buffer (Gibco, cat. #A10492-01) for 1 minute and then centrifuged at 200 g for 2 minutes. Pellets were resuspended in culture media, pipetted up and down 15 times to disperse tissue fragments, and centrifuged at 200 g for 5 minutes. Finally, any remaining tissue fragments were crushed with a 25-mL pipette and transferred with released cells and culture media to a 100-mm tissue culture dish and incubated at 37°C and 5% CO2. Media were changed every 3 days. When a confluence of ∼80% was reached, the cells were passaged to 150-mm dishes at 5,000 cells/cm^2. Aliquots of the patient-derived osteosarcoma cells were frozen in 10% DMSO (Sigma-Aldrich, D2650), 40% FBS (Cytiva, SH30071.03), and 50% culture media at second passage and stored in liquid nitrogen. The TT2-77 xenoline is a patient cell line that was isolated from a patient-derived xenograft (PDX) that was previously developed and characterized by the Pollok lab ([5]).\nThe number of patient-derived cells required to obtain sarcospheres with 400-μm diameters was determined for each patient and varied from 1,000 to 15,000 cells per sarcosphere.\nRound-bottom 96-well plates were coated with 50 μL/well of 0.5% poly 2-hydroxyethyl methacrylate (Polysciences Inc., cat. #09689-25) in 100% ethanol and incubated at 37°C for 3 days before use to obtain a nonadherent surface. […] Highly metastatic osteosarcoma cells cultured in monolayers at 50% to 80% confluence were lifted with Accutase (Innovative Cell Technologies, Inc., cat. #NC9839010), resuspended in media, and diluted to the desired concentration."}, "143B sarcospheres [3]": {"test_system": "143B sarcospheres", "assay": "Transient romidepsin treatment, recovery of metabolic activity", "assay_type": "cell-based, human", "conditions": "followed to day 14", "protocol": "(§1) Sarcosphere losses were minimized by removing the media stepwise (25 μL/step, 10 μL/second) and by centering the sarcospheres in the middle of each well by centrifugation (1,000 g for 6 minutes) before each media exchange cycle. After each assay of metabolic activity, resazurin was removed by three cycles of media exchange and the media were changed on days 10 and 12 by one cycle."}, "LM7 sarcospheres [4]": {"test_system": "LM7 sarcospheres", "assay": "Transient romidepsin treatment, recovery of metabolic activity", "assay_type": "cell-based, human", "conditions": "10–100 nmol/L; followed to day 14", "protocol": "as §1"}, "[5]": {"test_system": "sarcospheres derived from 143B, MG63.3-GFP, and LM7 cell lines", "assay": "Sarcosphere resazurin metabolic activity, results stated across all three cell lines", "assay_type": "cell-based, human", "conditions": "with and without MAP; vs belinostat, panobinostat, vorinostat, AR-42, resminostat", "protocol": "(§2) Khanna DVM, PhD (NCI). […] Medium was sterile filtered before use.\n(§3) Highly metastatic osteosarcoma cells cultured in monolayers at 50% to 80% confluence were lifted with Accutase (Innovative Cell Technologies, Inc., cat. #NC9839010), resuspended in media, and diluted to the desired concentration. […] Following cell seeding, plates were centrifuged (1,000 g for 10 minutes at 4°C) and then incubated at 37°C with 5% CO2. […] Then, 100 μL drug treatment or vehicle was added to each well. […] Resazurin reduction on day 2 by vehicle-treated sarcospheres was compared with resazurin reduction on day 0 to calculate sarcosphere growth without drug over 2 days in selected experiments.\n(§4) Plates were incubated at 37°C in 5% CO2 for 2 or 6 hours.\n(§5) Sarcospheres were matured for 24 hours and then treated for 48 hours with media containing 10 µmol/L of each drug and 0.1% DMSO. […] Growth inhibition represents a more clinically translatable measure for screening studies in which a value of 0% represents stable disease since the start of treatment, values of 0% to 100% represent progression in which 100% is the untreated control, and values less than 0% represent regression in which −100% represents blank wells without sarcospheres."}, "LM7 sarcospheres [6]": {"test_system": "LM7 sarcospheres", "assay": "Sarcosphere resazurin metabolic activity (initial and secondary screens)", "assay_type": "cell-based, human", "conditions": "secondary screen; without MAP", "protocol": "as §2, §3, §4, §5"}, "[7]": {"conditions": "humans, cited from earlier work"}, "143B sarcospheres [8]": {"test_system": "143B sarcospheres", "assay": "Cell cycle analysis by flow cytometry (DAPI)", "assay_type": "cell-based, human", "conditions": "10 nmol/L for 24 hours", "protocol": "(§6) Sarcospheres were washed with PBS to remove any media and then resuspended in Accumax Cell Detachment Solution ([…] Technologies, #07921) for 15 to 30 minutes. Sarcospheres were manually dissociated by pipetting up and down at least 10 times. Following dissociation, cells were fixed in Cytofix/Cytoperm (BD Cytofix/Cytoperm Fixation/Permeabilization Solution Kit, BDB554714) for 10 to 20 minutes at 4°C protected from light. Fixation solution was removed with two washes in sterile PBS. Cells were resuspended in PBS and stored for no more than 72 hours at 4°C. Cells were transferred to flow cytometry tubes for staining. For DAPI staining, 1 mg/mL DAPI (BD Pharmingen, #564907) was diluted 1000-fold in sterile PBS and 500 μL was added to the appropriate tubes containing an equal volume of cell suspension. Flow cytometry was performed using a BD LSRFortessa X-20 flow cytometer using a 407 laser. Cell cycle analysis was performed using the Watson model in FlowJo software (version 10.10.0)."}, "LM7 sarcospheres [9]": {"test_system": "LM7 sarcospheres", "assay": "Cell cycle analysis by flow cytometry (DAPI)", "assay_type": "cell-based, human", "conditions": "10 nmol/L for 24 hours", "protocol": "as §6"}}, "note": "Like-named read-outs stand apart in the source and are kept apart here.", "data": [{"smiles": "C/C=C1\\NC(=O)[C@H]2CSSCC/C=C/[C@H](CC(=O)N[C@H](C(C)C)C(=O)N2)OC(=O)[C@H](C(C)C)NC1=O", "note": "[romidepsin]", "values": [{"measurement": "tumor response", "setting": "[1]; mice followed for 1 week after discontinuation", "result": "tumors regressed"}, {"measurement": "response after discontinuation", "setting": "[1]; mice followed for 6 weeks after discontinuation", "result": "did not induce a sustained response"}, {"measurement": "growth of well-established subcutaneous xenografts", "setting": "[1]; small number of mice", "result": "inhibited growth"}, {"measurement": "share of human patient samples whose sarcospheres responded", "setting": "[2]; ED50s <70 nmol/L", "result": "~30", "unit": "%"}, {"measurement": "ED50", "setting": "[2]; TT2-77 Xenoline (romidepsin sensitive)", "result": 10, "unit": "nmol/L"}, {"measurement": "ED50 of the notably more sensitive patient", "setting": "[2]; one patient", "result": 1, "unit": "nmol/L"}, {"measurement": "ED50", "setting": "[2]; patient sample IUhOS002LR (romidepsin resistant)", "result": ">1,000 nmol/L"}, {"measurement": "ED50", "setting": "[2]; patient sample IUhOS005B (romidepsin resistant)", "result": ">1,000 nmol/L"}, {"measurement": "ED50", "setting": "[2]; patient sample IUhOS006B (romidepsin sensitive)", "result": 6, "unit": "nmol/L"}, {"measurement": "ED50", "setting": "[2]; patient sample IUhOS013B (romidepsin resistant)", "result": ">1,000 nmol/L"}, {"measurement": "ED50", "setting": "[2]; patient sample IUhOS018B (romidepsin sensitive)", "result": 1, "unit": "nmol/L"}, {"measurement": "ED50", "setting": "[2]; patient sample IUhOS020LR (romidepsin sensitive)", "result": 63, "unit": "nmol/L"}, {"measurement": "ED50", "setting": "[2]; patient sample IUhOS021B (romidepsin resistant)", "result": ">1,000 nmol/L"}, {"measurement": "ED50", "setting": "[2]; patient sample IUhOS027P (romidepsin resistant)", "result": ">1,000 nmol/L"}, {"measurement": "ED50", "setting": "[2]; patient sample IUhOS029LR (romidepsin resistant)", "result": ">1,000 nmol/L"}, {"measurement": "ED50", "setting": "[2]; patient sample IUhOS0410B (romidepsin resistant)", "result": ">1,000 nmol/L"}, {"measurement": "ED50", "setting": "[2]; patient sample IUhOS0410P (romidepsin resistant)", "result": ">1,000 nmol/L"}, {"measurement": "ED50", "setting": "[2]; patient sample IUhOS1516B (romidepsin sensitive)", "result": 10, "unit": "nmol/L"}, {"measurement": "ED50", "setting": "[2]; patient sample IUhOS1516P (romidepsin resistant)", "result": ">1,000 nmol/L"}, {"measurement": "ED50", "setting": "[2]; patient sample IUhOS1925B (romidepsin resistant)", "result": ">1,000 nmol/L"}, {"measurement": "ED50", "setting": "[2]; patient sample IUhOS1925P (romidepsin resistant)", "result": ">1,000 nmol/L"}, {"measurement": "ED50", "setting": "[2]; patient sample IUhOS2226B (romidepsin resistant)", "result": ">1,000 nmol/L"}, {"measurement": "ED50", "setting": "[2]; patient sample IUhOS2226P (romidepsin resistant)", "result": ">1,000 nmol/L"}, {"measurement": "recovery of metabolic activity after a 24-hour exposure", "setting": "143B sarcospheres [3]", "result": "rapidly recovered"}, {"measurement": "recovery of metabolic activity after a 24-hour exposure", "setting": "LM7 sarcospheres [4]", "result": "sustained effect for 14 days"}, {"measurement": "rank of ED50s among tested HDIs", "setting": "[5]", "result": "lowest ED50s"}, {"measurement": "rank of ED50 among the 13 drugs", "setting": "LM7 sarcospheres [6]", "result": "lowest ED50"}, {"measurement": "Cmax", "setting": "[7]", "result": "~700", "unit": "nM"}, {"measurement": "Cmax", "setting": "[7]; listed as Romidepsin", "result": 700, "unit": "nM"}, {"measurement": "cell cycle block", "setting": "143B sarcospheres [8]", "result": "induced a G2–M cell cycle block"}, {"measurement": "proportion of sub-G1 cells", "setting": "143B sarcospheres [8]", "result": "without altering the proportion of sub-G1 cells"}, {"measurement": "cell cycle block", "setting": "LM7 sarcospheres [9]", "result": "without inducing a cell cycle block"}, {"measurement": "proportion of sub-G1 cells", "setting": "LM7 sarcospheres [9]", "result": "increased the proportion of sub-G1 cells"}]}]}
